Test results: ChEMBL document CHEMBL1781873, “Synthesis and antibacterial property of pyrrolopyrano quinolinones and pyrroloquinolines” (2011)
≈ marks a conversion by molar mass, not a printed value. Calls of active or inactive are those of the source. No cut-off for these calls is given here.

Assays:
Escherichia coli [1] = assay: Inhibition of DNA gyrase mRNA expression in Escherichia coli measured up to 24 hrs by RT-PCR; type: functional, organism-based
Klebsiella pneumoniae [2] = assay: Antibacterial activity against Klebsiella pneumoniae at 25 ug after 24 hrs by disc diffusion assay; type: functional; settings: read-out: IZ
Klebsiella pneumoniae [3] = assay: Antibacterial activity against Klebsiella pneumoniae at 20 ug after 24 hrs by disc diffusion assay; type: functional; settings: read-out: IZ
Salmonella typhi [4] = assay: Antibacterial activity against Salmonella typhi at 25 ug after 24 hrs by disc diffusion assay; type: functional, Salmonella enterica subsp. enterica serovar Typhi; settings: Salmonella enterica, read-out: IZ
Escherichia coli [5] = assay: Antibacterial activity against Escherichia coli at 5 ug after 24 hrs by disc diffusion assay; type: functional; settings: read-out: IZ
Staphylococcus aureus [6] = assay: Antibacterial activity against Staphylococcus aureus at 25 ug after 24 hrs by disc diffusion assay; type: functional; settings: read-out: IZ
Escherichia coli [7] = assay: Antibacterial activity against Escherichia coli after 18 to 20 hrs by broth micro dilution assay; type: functional
Klebsiella pneumoniae [8] = assay: Antibacterial activity against Klebsiella pneumoniae at 15 ug after 24 hrs by disc diffusion assay; type: functional; settings: read-out: IZ
Bacillus subtilis [9] = assay: Antibacterial activity against Bacillus subtilis at 25 ug after 24 hrs by disc diffusion assay; type: functional; settings: read-out: IZ
Staphylococcus aureus [10] = assay: Antibacterial activity against Staphylococcus aureus at 15 ug after 24 hrs by disc diffusion assay; type: functional; settings: read-out: IZ
Staphylococcus aureus [11] = assay: Antibacterial activity against Staphylococcus aureus at 20 ug after 24 hrs by disc diffusion assay; type: functional; settings: read-out: IZ
Salmonella typhi [12] = assay: Antibacterial activity against Salmonella typhi at 5 ug after 24 hrs by disc diffusion assay; type: functional, Salmonella enterica subsp. enterica serovar Typhi; settings: Salmonella enterica, read-out: IZ
Salmonella typhi [13] = assay: Antibacterial activity against Salmonella typhi at 10 ug after 24 hrs by disc diffusion assay; type: functional, Salmonella enterica subsp. enterica serovar Typhi; settings: Salmonella enterica, read-out: IZ
Pseudomonas aeruginosa [14] = assay: Antibacterial activity against Pseudomonas aeruginosa at 15 ug after 24 hrs by disc diffusion assay; type: functional; settings: read-out: IZ
Salmonella typhi [15] = assay: Antibacterial activity against Salmonella typhi after 18 to 20 hrs by broth micro dilution assay; type: functional, Salmonella enterica subsp. enterica serovar Typhi; settings: Salmonella enterica
Bacillus subtilis [16] = assay: Antibacterial activity against Bacillus subtilis at 20 ug after 24 hrs by disc diffusion assay; type: functional; settings: read-out: IZ
Pseudomonas aeruginosa [17] = assay: Antibacterial activity against Pseudomonas aeruginosa at 10 ug after 24 hrs by disc diffusion assay; type: functional; settings: read-out: IZ
Staphylococcus aureus [18] = assay: Antibacterial activity against Staphylococcus aureus at 10 ug after 24 hrs by disc diffusion assay; type: functional; settings: read-out: IZ
Escherichia coli [19] = assay: Antibacterial activity against Escherichia coli at 20 ug after 24 hrs by disc diffusion assay; type: functional; settings: read-out: IZ
Escherichia coli [20] = assay: Inhibition of Escherichia coli DNA gyrase -mediated DNA relaxation using pBR322 DNA as substrate at […] after 1 hrs by agarose gel electrophoresis
Escherichia coli [21] = assay: Antibacterial activity against Escherichia coli at 25 ug after 24 hrs by disc diffusion assay; type: functional; settings: read-out: IZ
Escherichia coli [22] = assay: Inhibition of Escherichia coli DNA gyrase assessed as inhibition of DNA supercoiling activity using pBR322 DNA as substrate at […] after 3 hrs by agarose gel electrophoresis
Klebsiella pneumoniae [23] = assay: Antibacterial activity against Klebsiella pneumoniae at 10 ug after 24 hrs by disc diffusion assay; type: functional; settings: read-out: IZ
Staphylococcus aureus [24] = assay: Antibacterial activity against Staphylococcus aureus after 18 to 20 hrs by broth micro dilution assay; type: functional
Klebsiella pneumoniae [25] = assay: Antibacterial activity against Klebsiella pneumoniae after 18 to 20 hrs by broth micro dilution assay; type: functional
Pseudomonas aeruginosa [26] = assay: Antibacterial activity against Pseudomonas aeruginosa at 25 ug after 24 hrs by disc diffusion assay; type: functional; settings: read-out: IZ
Escherichia coli [27] = assay: Antibacterial activity against Escherichia coli at 10 ug after 24 hrs by disc diffusion assay; type: functional; settings: read-out: IZ
Pseudomonas aeruginosa [28] = assay: Antibacterial activity against Pseudomonas aeruginosa after 18 to 20 hrs by broth micro dilution assay; type: functional
Staphylococcus aureus [29] = assay: Antibacterial activity against Staphylococcus aureus at 5 ug after 24 hrs by disc diffusion assay; type: functional; settings: read-out: IZ
Klebsiella pneumoniae [30] = assay: Antibacterial activity against Klebsiella pneumoniae at 5 ug after 24 hrs by disc diffusion assay; type: functional; settings: read-out: IZ
Pseudomonas aeruginosa [31] = assay: Antibacterial activity against Pseudomonas aeruginosa at 20 ug after 24 hrs by disc diffusion assay; type: functional; settings: read-out: IZ
Pseudomonas aeruginosa [32] = assay: Antibacterial activity against Pseudomonas aeruginosa at 5 ug after 24 hrs by disc diffusion assay; type: functional; settings: read-out: IZ
Bacillus subtilis [33] = assay: Antibacterial activity against Bacillus subtilis at 15 ug after 24 hrs by disc diffusion assay; type: functional; settings: read-out: IZ
Salmonella typhi [34] = assay: Antibacterial activity against Salmonella typhi at 20 ug after 24 hrs by disc diffusion assay; type: functional, Salmonella enterica subsp. enterica serovar Typhi; settings: Salmonella enterica, read-out: IZ
Escherichia coli [35] = assay: Antibacterial activity against Escherichia coli at 15 ug after 24 hrs by disc diffusion assay; type: functional; settings: read-out: IZ
Salmonella typhi [36] = assay: Antibacterial activity against Salmonella typhi at 15 ug after 24 hrs by disc diffusion assay; type: functional, Salmonella enterica subsp. enterica serovar Typhi; settings: Salmonella enterica, read-out: IZ
Bacillus subtilis [37] = assay: Antibacterial activity against Bacillus subtilis after 18 to 20 hrs by broth micro dilution assay; type: functional
Bacillus subtilis [38] = assay: Antibacterial activity against Bacillus subtilis at 10 ug after 24 hrs by disc diffusion assay; type: functional; settings: read-out: IZ

CCC1[C@@H]2Nc3ccc(Cl)cc3C(c3ccccc3)[C@H]2CN1OS(=O)(=O)c1ccc(C)cc1 (stereo partly drawn)
inhibition of gyrase mRNA expression (active/not active) (Escherichia coli [1]): Active | zone of inhibition at 25 µg/disc (Klebsiella pneumoniae [2]): 36 mm | zone of inhibition at 20 µg/disc (Klebsiella pneumoniae [3]): 34 mm | zone of inhibition at 25 µg/disc (Salmonella typhi [4]): 22 mm | zone of inhibition at 5 µg/disc (Escherichia coli [5]): 10 mm | zone of inhibition at 25 µg/disc (Staphylococcus aureus [6]): 17 mm | MIC50 (Escherichia coli [7]): 128 µg/mL (≈ 265 µM) | MIC90 (Escherichia coli [7]): 128 µg/mL (≈ 265 µM) | zone of inhibition at 15 µg/disc (Klebsiella pneumoniae [8]): 30 mm | zone of inhibition at 25 µg/disc (Bacillus subtilis [9]): 12 mm | zone of inhibition at 15 µg/disc (Staphylococcus aureus [10]): 13 mm | zone of inhibition at 20 µg/disc (Staphylococcus aureus [11]): 14 mm | zone of inhibition at 5 µg/disc (Salmonella typhi [12]): 10 mm | zone of inhibition at 10 µg/disc (Salmonella typhi [13]): 16 mm | zone of inhibition at 15 µg/disc (Pseudomonas aeruginosa [14]): 17 mm | MIC50 (Salmonella typhi [15]): 128 µg/mL (≈ 265 µM) | MIC90 (Salmonella typhi [15]): 128 µg/mL (≈ 265 µM) | zone of inhibition at 20 µg/disc (Bacillus subtilis [16]): 10 mm | zone of inhibition at 10 µg/disc (Pseudomonas aeruginosa [17]): 16 mm | zone of inhibition at 10 µg/disc (Staphylococcus aureus [18]): 12 mm | zone of inhibition at 20 µg/disc (Escherichia coli [19]): 20 mm | inhibition (Escherichia coli [20]): Active | zone of inhibition at 25 µg/disc (Escherichia coli [21]): 23 mm | DNA gyrase inhibition (active/inactive) (Escherichia coli [22]): Active | zone of inhibition at 10 µg/disc (Klebsiella pneumoniae [23]): 26 mm | MIC50 (Staphylococcus aureus [24]): 128 µg/mL (≈ 265 µM) | MIC90 (Staphylococcus aureus [24]): 128 µg/mL (≈ 265 µM) | MIC50 (Klebsiella pneumoniae [25]): 128 µg/mL (≈ 265 µM) | MIC90 (Klebsiella pneumoniae [25]): 128 µg/mL (≈ 265 µM) | zone of inhibition at 25 µg/disc (Pseudomonas aeruginosa [26]): 24 mm | zone of inhibition at 10 µg/disc (Escherichia coli [27]): 16 mm | MIC50 (Pseudomonas aeruginosa [28]): 128 µg/mL (≈ 265 µM) | MIC90 (Pseudomonas aeruginosa [28]): 128 µg/mL (≈ 265 µM) | zone of inhibition at 5 µg/disc (Staphylococcus aureus [29]): 9 mm | zone of inhibition at 5 µg/disc (Klebsiella pneumoniae [30]): 20 mm | zone of inhibition at 20 µg/disc (Pseudomonas aeruginosa [31]): 22 mm | zone of inhibition at 5 µg/disc (Pseudomonas aeruginosa [32]): 10 mm | zone of inhibition at 15 µg/disc (Bacillus subtilis [33]): 9 mm | zone of inhibition at 20 µg/disc (Salmonella typhi [34]): 20 mm | zone of inhibition at 15 µg/disc (Escherichia coli [35]): 18 mm | zone of inhibition at 15 µg/disc (Salmonella typhi [36]): 18 mm | MIC50 (Bacillus subtilis [37]): 128 µg/mL (≈ 265 µM) | MIC90 (Bacillus subtilis [37]): 128 µg/mL (≈ 265 µM) | zone of inhibition at 10 µg/disc (Bacillus subtilis [38]): 7 mm

CCC1[C@@H]2c3c(c4ccccc4n(C)c3=O)OC(C)(C)[C@H]2CN1OS(=O)(=O)c1ccc(C)cc1 (mixture of isomers)
inhibition of gyrase mRNA expression (active/not active) (Escherichia coli [1]): Active | zone of inhibition at 25 µg/disc (Klebsiella pneumoniae [2]): 36 mm | zone of inhibition at 20 µg/disc (Klebsiella pneumoniae [3]): 34 mm | zone of inhibition at 25 µg/disc (Salmonella typhi [4]): 22 mm | zone of inhibition at 5 µg/disc (Escherichia coli [5]): 10 mm | zone of inhibition at 25 µg/disc (Staphylococcus aureus [6]): 17 mm | MIC50 (Escherichia coli [7]): 0.5 µg/mL | MIC90 (Escherichia coli [7]): 1 µg/mL | zone of inhibition at 15 µg/disc (Klebsiella pneumoniae [8]): 30 mm | zone of inhibition at 25 µg/disc (Bacillus subtilis [9]): 12 mm | zone of inhibition at 15 µg/disc (Staphylococcus aureus [10]): 13 mm | zone of inhibition at 20 µg/disc (Staphylococcus aureus [11]): 14 mm | zone of inhibition at 5 µg/disc (Salmonella typhi [12]): 10 mm | zone of inhibition at 10 µg/disc (Salmonella typhi [13]): 16 mm | zone of inhibition at 15 µg/disc (Pseudomonas aeruginosa [14]): 17 mm | MIC50 (Salmonella typhi [15]): 0.5 µg/mL | MIC90 (Salmonella typhi [15]): 0.5 µg/mL | zone of inhibition at 20 µg/disc (Bacillus subtilis [16]): 10 mm | zone of inhibition at 10 µg/disc (Pseudomonas aeruginosa [17]): 16 mm | zone of inhibition at 10 µg/disc (Staphylococcus aureus [18]): 12 mm | zone of inhibition at 20 µg/disc (Escherichia coli [19]): 20 mm | inhibition (Escherichia coli [20]): Active | zone of inhibition at 25 µg/disc (Escherichia coli [21]): 23 mm | DNA gyrase inhibition (active/inactive) (Escherichia coli [22]): Active | zone of inhibition at 10 µg/disc (Klebsiella pneumoniae [23]): 26 mm | MIC50 (Staphylococcus aureus [24]): 0.5 µg/mL | MIC90 (Staphylococcus aureus [24]): 0.5 µg/mL | MIC50 (Klebsiella pneumoniae [25]): 0.5 µg/mL | MIC90 (Klebsiella pneumoniae [25]): 0.5 µg/mL | zone of inhibition at 25 µg/disc (Pseudomonas aeruginosa [26]): 24 mm | zone of inhibition at 10 µg/disc (Escherichia coli [27]): 16 mm | MIC50 (Pseudomonas aeruginosa [28]): 0.5 µg/mL | MIC90 (Pseudomonas aeruginosa [28]): 0.5 µg/mL | zone of inhibition at 5 µg/disc (Staphylococcus aureus [29]): 9 mm | zone of inhibition at 5 µg/disc (Klebsiella pneumoniae [30]): 20 mm | zone of inhibition at 20 µg/disc (Pseudomonas aeruginosa [31]): 22 mm | zone of inhibition at 5 µg/disc (Pseudomonas aeruginosa [32]): 10 mm | zone of inhibition at 15 µg/disc (Bacillus subtilis [33]): 9 mm | zone of inhibition at 20 µg/disc (Salmonella typhi [34]): 20 mm | zone of inhibition at 15 µg/disc (Escherichia coli [35]): 18 mm | zone of inhibition at 15 µg/disc (Salmonella typhi [36]): 18 mm | MIC50 (Bacillus subtilis [37]): 0.5 µg/mL | MIC90 (Bacillus subtilis [37]): 0.5 µg/mL | zone of inhibition at 10 µg/disc (Bacillus subtilis [38]): 7 mm
